In patent EP0959987B1, “USE OF PERFLUOROALKYL SUBSTITUTED PHOSPHORUS COMPOUNDS AS LIGANDS FOR HOMOGENEOUS CATALYSIS IN SUPERCRITICAL CARBON DIOXIDE” (Studiengesellschaft Kohle mbH, priority 1997, dated 1998):

Columns and labels:
[1] = Solubility of the complexes in scCO2 by UV spectroscopy (Lambert-Beer law, reference data for THF solutions); format: physicochemical
Description: Die Löslichkeit der Komplexe IXa,b in scCO2 wurde mittels UV-Spektroskopie bestimmt und mit der Löslichkeit der unsubstituierten Stammverbindung [(dppe)Rh(hfacac)] IXe verglichen. IXe ist selbst bei hoher Dichte ρ und damit hoher Lösungskraft des scCO2 (Angew. Chem. 1978, 90, 748) nicht löslich (T = 50 °C, […]). Mit IXa und IXb werden hingegen bereits bei niedrigen Dichten (T= 50 °C, ρ = 90 bar, ρ = 0.55 g cm^-3) gelb-orange Lösungen erhalten. Aus den Absorptionsmaxima der UV-Spektren (siehe Abb. 1) läßt sich über das Lambert-Beer'sche-Gesetz mittels Vergleichsdaten für THF-Lösungen eine Sättigungskonzentration von 6.3 x 10^-5 M für IXa und 7.5 x 10^-5 M für IXb ermitteln. Zum Vergleich ist in Abb. 1 auch das UV-Spektrum des Komplexes IXf mit der Alkylphosphorverbindung 1,2-Bis(dicyclohexylphosphino)ethan (dcpe) aufgeführt. Die Löslichkeit von IXf in scCO2 beträgt unter identischen Bedingungen 1.1 x 10^-5 M, ist also um 5x bzw. 7x geringer als die von IXa und IXb. [formula]

[2] = scCO2, T = 50 °C, p = 345 bar; cited from earlier work

| Compound | Löslichkeit in scCO2 [1] | maximale Löslichkeit [2] |
| --- | --- | --- |
| O=C([CH-]C(=O)C(F)(F)F)C(F)(F)F.[Rh+].c1ccc(P(CCP(c2ccccc2)c2ccccc2)c2ccccc2)cc1 [IXe, [(dppe)Rh(hfacac)], reference compound] | nicht löslich | – |
| [(Duphos)Rh(η^4-C8H12)]^+ | – | 30 µM |
